SMILES strings stand for the structures.

The source of these data is patent EP1243581A1, “Pyridinium compounds useful for the treatment of AGE-related diseases” (Torrent Pharmaceuticals Ltd, priority 2001, dated 2002).

The subject of test [1] is rat model of diabetes. The experiment in a line: In-vivo screening: nerve conduction velocity in STZ-induced diabetic rats. The following applies: b.i.d., 8 weeks, after 12 weeks of STZ diabetes. As to the method:
The test compounds were studied for their beneficial effects on diabetic neuropathy and nephropathy in a rat model of diabetes. The rats were divided into three groups. The first group consisted of age matched untreated non-diabetic animals. The second group consisted of diabetic controls and the third group was the diabetic group treated with the test compound. Each treatment group had its own corresponding control and diabetic groups. The second and third groups were treated with Streptozotocin (STZ) at 60mg/kg for the induction of diabetes. After completion of 12 weeks of diabetes the rats were treated with the test compound daily (doses shown in table) for a period of 8 weeks. At the end of the treatment the creatinine clearances and nerve conduction velocities (NCV) of the animals were estimated. […]
The nerve conduction velocity was measured using a modified method of Biro et al 1998. […] Electromyograms (EMG's) recorded from the plantar muscles consisted of two components: (l) the short latency direct motor response (M) and the monosynaptically elicited long-latency sensory response (H, Hoffmann reflex). Latency and the duration of the M responses were measured and the motor nerve conduction velocity (MNCV) was calculated as follows : MNCV =(Distance between the sciatic and tibial stimulation points.)/(Differences of the latency for Msciatic and Mtibial) [formula] […]

The target in the next test is T1, AGE-BSA (Bos taurus, UniProt P02769).
T1 construct: Bovine serum albumin (fraction V) (BSA); from tissue; host or cells: bovine serum (fraction V albumin)
T1 sequence (P02769 25-607): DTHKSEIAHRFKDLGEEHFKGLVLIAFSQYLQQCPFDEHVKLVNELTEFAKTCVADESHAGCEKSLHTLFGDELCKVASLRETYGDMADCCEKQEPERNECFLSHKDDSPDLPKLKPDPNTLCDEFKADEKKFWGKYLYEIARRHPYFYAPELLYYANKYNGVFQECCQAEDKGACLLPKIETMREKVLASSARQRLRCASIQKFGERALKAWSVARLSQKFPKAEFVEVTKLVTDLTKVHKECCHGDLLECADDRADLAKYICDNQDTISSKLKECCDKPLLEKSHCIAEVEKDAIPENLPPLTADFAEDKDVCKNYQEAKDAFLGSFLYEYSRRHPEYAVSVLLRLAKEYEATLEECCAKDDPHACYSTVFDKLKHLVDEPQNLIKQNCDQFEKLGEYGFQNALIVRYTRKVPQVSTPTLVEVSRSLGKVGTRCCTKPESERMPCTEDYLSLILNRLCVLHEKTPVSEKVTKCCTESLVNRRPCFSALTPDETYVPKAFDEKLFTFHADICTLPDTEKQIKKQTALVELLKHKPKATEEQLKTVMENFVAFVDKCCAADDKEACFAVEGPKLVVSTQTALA
The experiment in a line: In-vitro screening for AGE-breaking activity (ELISA on 16 weeks AGE-BSA). It is filed as biochemical, bovine. Particulars: Concentration 5 mM; 10µg/ml 16 weeks AGE-BSA, 37°C, 24 hours. In general terms: In an ELISA, binding on a coated surface is turned into a signal by an enzyme label.

The test system of test [2] is rat model of diabetes. Nature of the test: In-vivo screening: creatinine clearance in STZ-induced diabetic rats. Particulars: b.i.d., 8 weeks, after 12 weeks of STZ diabetes, versus untreated diabetic group. As to the method: The test compounds were studied for their beneficial effects on diabetic neuropathy and nephropathy in a rat model of diabetes. The rats were divided into three groups. The first group consisted of age matched untreated non-diabetic animals. The second group consisted of diabetic controls and the third group was the diabetic group treated with the test compound. Each treatment group had its own corresponding control and diabetic groups. The second and third groups were treated with Streptozotocin (STZ) at 60mg/kg for the induction of diabetes. After completion of 12 weeks of diabetes the rats were treated with the test compound daily (doses shown in table) for a period of 8 weeks. At the end of the treatment the creatinine clearances and nerve conduction velocities (NCV) of the animals were estimated. Creatinine clearances of the rats were estimated as follows Creatinine clearance =(Concentration of creatinine in the urine)/(Concentration of creatinine in the blood.)x ml urine passed/minute [formula]
The creatinine clearance in untreated diabetic group was compared with the treated group and the percentage improvements are shown in the Table 3.

Method for AGE-BSA: • Materials: • Bovine serum albumin (fraction V) (BSA) • Glucose, analytical grade • Phosphate buffered saline (PBS) • Equipment: • Microplate ELISA Reader - Spectramax Plus (Molecular Devices, USA) • Microplate washer, (Bio -Tec Instruments, USA) • pH meter Methods of experiment: Elisa (Enzyme Linked Immunosorbent Assay) 160 mg/ml of protein, bovine serum albumin, BSA and 1.6M glucose sugar were dissolved in phosphate buffered saline, PBS. Sodium azide was added at 0.02% concentration as a preservative. The solution was filtered asceptically through a 0.22 µM filter and kept for aging at 37°C for 16 weeks. After 16 weeks the solution was dialyzed against PBS, aliquoted and stored at - 20°C.
To determine the AGE breaking activity, 10µg/ml of the 16 weeks AGE-BSA was incubated with different concentrations of the test compounds at 37°C for 24 hours and AGE breaking activity of the test compounds by ELISA was determined. […] Different concentrations of 16 weeks AGE-BSA were coated on a microtitre plate as standard. Each concentration is coated in triplicates. • 2. The test samples were coated on microtitre plate at a concentration of 5 ng. to 20 ng per well in triplicates. • 3. The plate was incubated at 37°C for one hour. • 4. After incubation the plate was washed with PBST (PBS with 0.05% Tween 20). • 5. Blocking with 5% skimmed milk in PBS at 37°C for one hour was done. • 6. The plate was washed with PBST. • 7. Primary antibody against AGE-BSA was added and the plate is incubated at 37°C for one hour. • 8. The plate was washed with PBST • 9. Secondary antibody anti rabbit HRPO (Horse-Radish Per Oxidase) conjugate was added and the plate is incubated at 37°C for one hour. • 10. The plate was washed with PBST. • 11. Colour development with OPD (orthophenylenediamine dihydrochloride) and hydrogen peroxide was done. • 12. OD (optical density) at (450nm reading - 620nm reading) was measured after incubation at 37°C for 15 minutes with Microplate ELISA Reader.
The breaker activity of the compounds were determined by the following formula: % Breaker activity =(OD450-620 Control - OD450-620 Test)/(OD450-620 Control)x 100 [formula]

With `O=C(NNC(=O)c1ccc[n+](CC(=O)c2cccs2)c1)c1ccc[n+](CC(=O)c2cccs2)c1` [Compound 15, N,N'-bis [3-carbonyl-1-(2-thien-2'-yl-2-oxoethyl)pyridinium] hydrazine dichloride], the “% Increase in the NCV” value in the test on rat model of diabetes [1] (7.5 mg/kg) amounted to 60.0%. The same compound returned a % breakage of AGE-BSA crosslinks at 5000 µM on AGE-BSA of 20%. Besides, the “% Increase in creatinine clearance” value with rat model of diabetes [2] (7.5 mg/kg) is 103.0%.
For the compound `O=C(C[n+]1cccc(C(=O)NNC(=O)c2ccc[n+](CC(=O)NC3CC3)c2)c1)NC1CC1` [Compound 21, N,N'-bis-[3-carbonyl-1-(2-cyclopropylamino-2-oxoethyl)pyridinium] hydrazine dichloride], the “% Increase in the NCV” value in the test with rat model of diabetes [1] (6.0 mg/kg) is on record as 58.4%. This compound also registered a % breakage of AGE-BSA crosslinks at 5000 µM on AGE-BSA of 22.8%. For the same compound, in the test with rat model of diabetes [2] (6.0 mg/kg), the “% Increase in creatinine clearance” value stood at 5.0%.
